From publication PMC10023787, “Trio-pharmacophore DNA-encoded chemical library for simultaneous selection of fragments and linkers” (Nature Communications, 2023)
Read-outs that look alike come from different tables or passages of the source.

Assays:
MMP-2 = biological target: T1, MMP-2 (Homo sapiens, UniProt P08253); assay: MMP-2 inhibition assay (fluorogenic peptide substrate); type: biochemical; conditions: for IC50: n.d: not detected
T1 construct: purchased Sino Biological 10082-HNAH
T1 sequence (P08253 110-660): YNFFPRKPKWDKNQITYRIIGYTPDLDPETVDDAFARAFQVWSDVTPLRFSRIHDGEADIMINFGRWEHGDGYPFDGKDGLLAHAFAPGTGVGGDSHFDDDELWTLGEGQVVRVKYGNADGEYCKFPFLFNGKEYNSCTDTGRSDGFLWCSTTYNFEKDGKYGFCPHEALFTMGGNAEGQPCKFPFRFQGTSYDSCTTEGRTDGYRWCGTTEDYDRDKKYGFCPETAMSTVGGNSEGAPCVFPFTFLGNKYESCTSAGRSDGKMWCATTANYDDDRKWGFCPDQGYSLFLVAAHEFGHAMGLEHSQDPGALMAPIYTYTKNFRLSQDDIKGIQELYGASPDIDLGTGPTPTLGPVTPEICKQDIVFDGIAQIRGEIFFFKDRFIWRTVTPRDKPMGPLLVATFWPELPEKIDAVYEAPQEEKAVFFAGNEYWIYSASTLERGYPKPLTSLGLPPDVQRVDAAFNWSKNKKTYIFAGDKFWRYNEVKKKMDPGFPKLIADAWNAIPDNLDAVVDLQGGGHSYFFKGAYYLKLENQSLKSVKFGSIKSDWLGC
Procedure: (§1) The inhibition by the small molecule compounds against MMP-2/MMP-9 was measured using an assay probing the enzyme proteolytic activity on the substrate DNP-Pro-Leu-Gly-Met-Trp-Ser-Arg (Enzo Life Sciences, USA). All assays were performed in the assay buffer containing 50 mM Tris, 100 mM NaCl. 5 mM CaCl2, and 0.1% Brij 35, pH 7.5. Human proMMP-2 and proMMP-9 were purchased from Sino biological (Germany). The proMMPs were activated by 1 mM APMA in the assay buffer at 37 °C for 2 h. After activation, MMP-2 was diluted to 6.5 nM of final assay concentration, and MMP-9 was diluted by the buffer to reach 10 nM of final assay concentration. In each well, 49 μl of enzyme solution was incubated with 1 μl of compounds of series of concentration (nM-mM in DMSO) at RT for 30 min. 2 μl of the FRET substrate was added right before the measurement at a final concentration of 25 μM. The rate of hydrolysis was monitored by quantifying the emission at 360 nm (ex: 280 nm). The emission was measured with intervals of the 30 s for 30 min with Synergy H1 Plate Reader (Agilent, USA). The measurements were done in triplicate. […] Then, curves were plotted as a function of the concentration of the inhibitor against the relative enzyme activity. Vmax was derived from the detected […] signal for each concentration and logistic fitting was performed to obtain IC50 values using Origin 2019b (OriginLab).

MMP-9 = biological target: T2, MMP-9 (Homo sapiens, UniProt P14780); assay: MMP-9 inhibition assay (fluorogenic peptide substrate); type: biochemical; design: remaining enzyme activity (% of control): scale not given here; conditions: for IC50: n.d: not detected
T2 construct: purchased Sino Biological 10327-HNAH
Procedure: as §1

[1] = MMP-2, concentration 1219.00 µM
[2] = mean ± SE, Fig. 5d unit inferred, µM, read-out: IC50
[3] = MMP-9, concentration 1219.00 µM
[4] = mean ± SE, Fig. 5e prints no unit, µM, read-out: IC50

T2 sequence (P14780 107-707 limits assumed): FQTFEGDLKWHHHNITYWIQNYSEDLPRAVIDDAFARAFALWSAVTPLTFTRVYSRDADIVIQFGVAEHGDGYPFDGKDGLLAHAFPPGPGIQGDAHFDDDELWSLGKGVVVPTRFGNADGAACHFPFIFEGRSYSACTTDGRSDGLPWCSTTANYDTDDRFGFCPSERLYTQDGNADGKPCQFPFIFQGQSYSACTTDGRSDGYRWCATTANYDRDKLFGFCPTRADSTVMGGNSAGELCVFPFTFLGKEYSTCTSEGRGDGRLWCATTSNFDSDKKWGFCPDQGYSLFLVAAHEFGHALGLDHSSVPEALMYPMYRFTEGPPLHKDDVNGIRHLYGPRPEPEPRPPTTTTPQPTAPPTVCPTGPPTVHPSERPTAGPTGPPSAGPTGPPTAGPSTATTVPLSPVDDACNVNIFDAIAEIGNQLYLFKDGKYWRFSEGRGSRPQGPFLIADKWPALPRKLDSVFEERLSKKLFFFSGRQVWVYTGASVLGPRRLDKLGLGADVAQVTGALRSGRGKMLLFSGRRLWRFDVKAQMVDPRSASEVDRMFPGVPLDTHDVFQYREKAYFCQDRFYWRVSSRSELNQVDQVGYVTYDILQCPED

| remaining activity (%) (MMP-2; MMP-2, concentration 0.0156 µM) | remaining activity (%) (MMP-2; MMP-2, concentration 0.08 µM) | remaining activity (%) (MMP-2; MMP-2, concentration 0.39 µM) | remaining activity (%) (MMP-2; MMP-2, concentration 1.95 µM) | remaining activity (%) (MMP-2; MMP-2, concentration 9.75 µM) | remaining activity (%) (MMP-2; MMP-2, concentration 48.76 µM) | remaining activity (%) (MMP-2; MMP-2, concentration 243.80 µM) | remaining activity (%) (MMP-2; [1]) | IC50 (MMP-2; [2]) | remaining enzyme activity (% of control) (MMP-9; MMP-9, concentration 0.08 µM) | remaining enzyme activity (% of control) (MMP-9; MMP-9, concentration 0.39 µM) | remaining enzyme activity (% of control) (MMP-9; MMP-9, concentration 1.95 µM) | remaining enzyme activity (% of control) (MMP-9; MMP-9, concentration 9.75 µM) | remaining enzyme activity (% of control) (MMP-9; MMP-9, concentration 48.76 µM) | remaining enzyme activity (% of control) (MMP-9; MMP-9, concentration 243.80 µM) | remaining enzyme activity (% of control) (MMP-9; [3]) | IC50 (MMP-9; [4]) | Compound | other results |
| --- | --- | --- | --- | --- | --- | --- | --- | --- | --- | --- | --- | --- | --- | --- | --- | --- | --- | --- |
|  |  |  |  |  |  |  |  |  |  |  |  |  |  |  |  |  | O=C(CSCCNC(=O)c1cncc(O)c1)NCC12CC3CC(CC(C3)C1)C2 [66_828 24] | IC50 (MMP-2; Figure 5d, fragment combination joined by linker, read-out: MMP2 IC50): 184 µM; IC50 (MMP-9; Figure 5d, fragment combination joined by linker, read-out: MMP9 IC50): 216 µM |
| 89.30 | 95.29 | 92.88 | 92.98 | 84.05 | 61.94 | 24.12 | 0.00 | 95.5 ± 35.1 µM | 89.67 | 88.12 | 85.78 | 75.76 | 77.96 | 22.66 | 0.00 | 143 ± 32.6 µM | O=C(Cn1cnc2c(oc3ccccc32)c1=O)NCc1c[nH]nn1 [182+787 Linker 1] |  |
| 85.89 | 83.14 | 79.52 |  | 75.23 | 75.41 | 40.43 | 0.00 | 193 ± 24.2 µM | 91.89 | 89.82 | 91.34 | 95.46 | 62.79 | 34.94 | 0.00 | 134 ± 39.6 µM | O=C(CCC(=O)NCc1c[nH]nn1)NCCCCCCCCNC(=O)Cn1cnc2c(oc3ccccc32)c1=O [182+787 Linker 4] |  |
| 104.21 | 112.47 | 110.12 | 98.52 | 97.01 | 78.57 | 30.14 | 0.00 | 137 ± 37.5 µM | 100.62 | 94.43 | 101.63 | 94.48 | 72.77 | 28.00 | 0.00 | 126 ± 12 µM | O=C(CCC(=O)NCc1c[nH]nn1)NCCOCCOCCNC(=O)Cn1cnc2c(oc3ccccc32)c1=O [182+787 Linker 10] |  |
|  |  |  |  |  |  |  |  | 45.9 ± 16.2 µM |  |  |  |  |  |  |  | 126 ± 9.6 µM | O=C(CSCCNC(=O)Cn1cnc2c(oc3ccccc32)c1=O)NCc1c[nH]nn1 [182+787 Linker 24] | remaining activity (%) (MMP-2; MMP-2, concentration 0.0171 µM): 92.17; remaining activity (%) (MMP-2; MMP-2, concentration 0.0855 µM): 86.66; remaining activity (%) (MMP-2; MMP-2, concentration 0.43 µM): 97.11; remaining activity (%) (MMP-2; MMP-2, concentration 2.14 µM): 88.49; remaining activity (%) (MMP-2; MMP-2, concentration 10.69 µM): 87.27; remaining activity (%) (MMP-2; MMP-2, concentration 53.44 µM): 39.59; remaining activity (%) (MMP-2; MMP-2, concentration 267.20 µM): 13.68; remaining enzyme activity (% of control) (MMP-9; MMP-9, concentration 0.0855 µM): 86.26; remaining enzyme activity (% of control) (MMP-9; MMP-9, concentration 0.43 µM): 83.15; remaining enzyme activity (% of control) (MMP-9; MMP-9, concentration 2.14 µM): 95.29; remaining enzyme activity (% of control) (MMP-9; MMP-9, concentration 10.69 µM): 93.78; remaining enzyme activity (% of control) (MMP-9; MMP-9, concentration 53.44 µM): 70.78; remaining enzyme activity (% of control) (MMP-9; MMP-9, concentration 267.20 µM): 19.03 |
|  |  |  | 93.31 |  |  |  |  |  |  |  | 89.70 |  |  |  |  |  | Cn1c(O)nc2cc(C(=O)NCCNC(=O)Cn3cnc4c(oc5ccccc54)c3=O)cnc21 [182+826 Linker 1] | remaining activity (%) (MMP-2; MMP-2, concentration 0.12 µM): 94.84; remaining activity (%) (MMP-2; MMP-2, concentration 0.49 µM): 90.90; remaining activity (%) (MMP-2; MMP-2, concentration 7.81 µM): 101.10; remaining activity (%) (MMP-2; MMP-2, concentration 31.25 µM): 86.65; remaining activity (%) (MMP-2; MMP-2, concentration 125.00 µM): 86.38; remaining activity (%) (MMP-2; MMP-2, concentration 500.00 µM): 61.56; remaining enzyme activity (% of control) (MMP-9; MMP-9, concentration 0.12 µM): 83.90; remaining enzyme activity (% of control) (MMP-9; MMP-9, concentration 0.49 µM): 96.21; remaining enzyme activity (% of control) (MMP-9; MMP-9, concentration 7.81 µM): 92.69; remaining enzyme activity (% of control) (MMP-9; MMP-9, concentration 31.25 µM): 77.21; remaining enzyme activity (% of control) (MMP-9; MMP-9, concentration 125.00 µM): 71.00; remaining enzyme activity (% of control) (MMP-9; MMP-9, concentration 500.00 µM): 60.44 |
